Legend:
Assay in all cases: KinaseProfiler Assay
SAPK3(h) = biological target: T1, SAPK3(h) (Homo sapiens, UniProt P53778)
T1 sequence (P53778 1-367): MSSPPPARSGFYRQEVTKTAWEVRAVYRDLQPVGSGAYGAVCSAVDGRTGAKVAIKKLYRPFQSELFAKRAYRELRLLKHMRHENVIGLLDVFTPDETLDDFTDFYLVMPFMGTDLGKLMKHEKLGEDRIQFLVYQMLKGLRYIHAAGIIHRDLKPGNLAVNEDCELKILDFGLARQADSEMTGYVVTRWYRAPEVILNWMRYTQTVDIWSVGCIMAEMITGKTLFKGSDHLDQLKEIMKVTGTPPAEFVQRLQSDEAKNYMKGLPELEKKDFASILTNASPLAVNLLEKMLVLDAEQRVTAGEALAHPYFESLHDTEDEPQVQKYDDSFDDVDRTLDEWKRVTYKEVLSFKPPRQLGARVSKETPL

BTK(h) = BTK(h) (Homo sapiens, UniProt Q06187)
Ret(h) = Ret(h) (Homo sapiens, UniProt P07949)
WNK3(h) = WNK3(h) (Homo sapiens, UniProt Q9BYP7)
ULK2(h) = biological target: T2, ULK2(h) (Homo sapiens, UniProt Q8IYT8)
T2 sequence (Q8IYT8 1-1036): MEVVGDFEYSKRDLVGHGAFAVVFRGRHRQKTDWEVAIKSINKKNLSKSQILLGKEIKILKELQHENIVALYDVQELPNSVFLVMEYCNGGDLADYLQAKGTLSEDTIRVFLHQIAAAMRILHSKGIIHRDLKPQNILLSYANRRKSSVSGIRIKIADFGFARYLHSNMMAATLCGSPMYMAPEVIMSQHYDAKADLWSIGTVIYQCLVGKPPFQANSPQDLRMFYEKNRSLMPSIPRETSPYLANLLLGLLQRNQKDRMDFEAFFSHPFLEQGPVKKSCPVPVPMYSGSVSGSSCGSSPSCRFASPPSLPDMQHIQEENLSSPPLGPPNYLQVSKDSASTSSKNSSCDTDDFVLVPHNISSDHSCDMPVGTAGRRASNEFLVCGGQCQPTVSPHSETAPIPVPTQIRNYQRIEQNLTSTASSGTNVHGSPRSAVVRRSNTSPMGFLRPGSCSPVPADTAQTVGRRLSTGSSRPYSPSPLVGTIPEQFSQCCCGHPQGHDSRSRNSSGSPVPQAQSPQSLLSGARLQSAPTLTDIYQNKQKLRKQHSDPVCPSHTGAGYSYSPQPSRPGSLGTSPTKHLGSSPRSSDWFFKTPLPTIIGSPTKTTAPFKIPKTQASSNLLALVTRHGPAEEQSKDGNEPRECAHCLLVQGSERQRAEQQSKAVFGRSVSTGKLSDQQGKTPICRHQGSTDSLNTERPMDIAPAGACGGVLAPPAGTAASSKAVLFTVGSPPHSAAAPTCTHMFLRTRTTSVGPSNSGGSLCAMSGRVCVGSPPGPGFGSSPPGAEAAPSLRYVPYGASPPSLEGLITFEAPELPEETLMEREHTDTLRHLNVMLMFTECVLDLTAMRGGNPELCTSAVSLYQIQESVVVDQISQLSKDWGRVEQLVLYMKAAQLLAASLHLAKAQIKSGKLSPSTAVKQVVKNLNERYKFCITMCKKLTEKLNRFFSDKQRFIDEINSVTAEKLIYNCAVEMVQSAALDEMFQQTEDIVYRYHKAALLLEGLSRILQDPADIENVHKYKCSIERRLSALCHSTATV

MRCKα(h) = MRCKα(h) (Homo sapiens, UniProt Q5VT25)
Src(1-530)(h) = Src(1-530)(h) (Homo sapiens, UniProt P12931)
ALK(h) = ALK(h) (Homo sapiens, UniProt Q9UM73)
Plk3(h) = Plk3(h) (Homo sapiens, UniProt Q9H4B4)
PrKX(h) = biological target: T3, PrKX(h) (Homo sapiens, UniProt P51817)
T3 sequence (P51817 1-358): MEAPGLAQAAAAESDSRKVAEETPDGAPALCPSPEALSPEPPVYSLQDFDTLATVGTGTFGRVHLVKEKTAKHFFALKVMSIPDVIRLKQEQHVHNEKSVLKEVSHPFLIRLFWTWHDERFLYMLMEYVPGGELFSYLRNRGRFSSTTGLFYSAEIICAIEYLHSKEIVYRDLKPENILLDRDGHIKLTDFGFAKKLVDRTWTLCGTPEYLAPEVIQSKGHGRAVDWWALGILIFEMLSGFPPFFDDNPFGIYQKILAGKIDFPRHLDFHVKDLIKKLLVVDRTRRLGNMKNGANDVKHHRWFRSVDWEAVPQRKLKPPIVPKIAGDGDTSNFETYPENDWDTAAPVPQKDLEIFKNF

Chain of BTK(h) (Q06187 whole entry): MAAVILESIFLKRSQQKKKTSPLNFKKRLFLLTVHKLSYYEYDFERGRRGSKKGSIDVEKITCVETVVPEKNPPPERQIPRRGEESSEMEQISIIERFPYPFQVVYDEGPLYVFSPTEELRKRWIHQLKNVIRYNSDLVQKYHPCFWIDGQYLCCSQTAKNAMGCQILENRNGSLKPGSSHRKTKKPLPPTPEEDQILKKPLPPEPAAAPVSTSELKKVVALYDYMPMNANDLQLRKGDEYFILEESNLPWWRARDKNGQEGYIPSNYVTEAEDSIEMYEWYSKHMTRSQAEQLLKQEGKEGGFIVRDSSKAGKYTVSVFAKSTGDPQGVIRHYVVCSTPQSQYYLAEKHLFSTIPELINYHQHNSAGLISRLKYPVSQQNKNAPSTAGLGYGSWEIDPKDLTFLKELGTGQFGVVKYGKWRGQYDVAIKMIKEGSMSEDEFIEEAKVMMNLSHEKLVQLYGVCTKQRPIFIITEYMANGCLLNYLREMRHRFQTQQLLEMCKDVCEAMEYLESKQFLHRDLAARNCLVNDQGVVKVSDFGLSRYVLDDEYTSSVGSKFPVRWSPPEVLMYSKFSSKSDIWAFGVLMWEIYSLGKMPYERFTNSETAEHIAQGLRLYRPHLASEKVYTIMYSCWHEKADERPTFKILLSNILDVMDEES
Chain of Src(1-530)(h) (P12931 1-530): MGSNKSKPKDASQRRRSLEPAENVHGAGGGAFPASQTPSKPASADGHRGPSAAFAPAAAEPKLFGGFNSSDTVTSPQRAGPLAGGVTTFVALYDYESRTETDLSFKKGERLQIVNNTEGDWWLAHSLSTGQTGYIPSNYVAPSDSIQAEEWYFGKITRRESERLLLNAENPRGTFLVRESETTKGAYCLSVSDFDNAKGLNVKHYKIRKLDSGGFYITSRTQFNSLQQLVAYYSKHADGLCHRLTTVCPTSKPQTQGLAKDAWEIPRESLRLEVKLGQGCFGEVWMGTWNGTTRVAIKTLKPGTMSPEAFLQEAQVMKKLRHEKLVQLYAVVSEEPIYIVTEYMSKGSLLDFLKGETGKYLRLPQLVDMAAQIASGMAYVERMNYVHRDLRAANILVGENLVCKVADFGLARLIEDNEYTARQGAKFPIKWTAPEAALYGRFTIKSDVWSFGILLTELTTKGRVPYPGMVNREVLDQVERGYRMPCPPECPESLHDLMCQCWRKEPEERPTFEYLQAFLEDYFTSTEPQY
Chain of Ret(h) (P07949 29-1114): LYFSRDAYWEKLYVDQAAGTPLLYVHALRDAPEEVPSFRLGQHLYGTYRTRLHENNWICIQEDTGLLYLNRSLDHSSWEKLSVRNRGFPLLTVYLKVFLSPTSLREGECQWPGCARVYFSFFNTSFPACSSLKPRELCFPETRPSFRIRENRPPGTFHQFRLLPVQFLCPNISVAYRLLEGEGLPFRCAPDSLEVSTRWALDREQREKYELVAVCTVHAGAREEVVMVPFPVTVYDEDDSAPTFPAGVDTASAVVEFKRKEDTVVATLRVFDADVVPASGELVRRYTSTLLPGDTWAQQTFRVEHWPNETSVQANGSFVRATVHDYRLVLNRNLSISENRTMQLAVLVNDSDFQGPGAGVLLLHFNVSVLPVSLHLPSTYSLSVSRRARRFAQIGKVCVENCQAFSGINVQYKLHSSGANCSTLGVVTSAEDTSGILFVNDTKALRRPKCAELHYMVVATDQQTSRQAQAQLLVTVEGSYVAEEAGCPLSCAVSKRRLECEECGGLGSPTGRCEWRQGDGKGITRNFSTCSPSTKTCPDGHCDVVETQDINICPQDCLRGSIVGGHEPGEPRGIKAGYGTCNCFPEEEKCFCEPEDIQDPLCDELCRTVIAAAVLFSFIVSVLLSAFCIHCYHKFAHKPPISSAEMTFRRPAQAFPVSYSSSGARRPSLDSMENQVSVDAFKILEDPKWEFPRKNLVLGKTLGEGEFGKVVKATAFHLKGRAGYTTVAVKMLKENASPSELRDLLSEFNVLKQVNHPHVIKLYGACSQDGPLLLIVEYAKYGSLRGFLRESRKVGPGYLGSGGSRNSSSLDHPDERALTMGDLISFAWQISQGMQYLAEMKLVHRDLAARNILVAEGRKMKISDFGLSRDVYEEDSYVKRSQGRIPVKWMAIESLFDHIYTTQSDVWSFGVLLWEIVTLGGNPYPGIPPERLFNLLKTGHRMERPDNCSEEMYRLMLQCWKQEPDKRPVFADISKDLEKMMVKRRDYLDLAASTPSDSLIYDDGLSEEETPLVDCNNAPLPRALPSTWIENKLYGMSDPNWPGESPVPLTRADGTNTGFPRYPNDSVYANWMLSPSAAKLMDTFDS
Chain of WNK3(h) (Q9BYP7 whole entry): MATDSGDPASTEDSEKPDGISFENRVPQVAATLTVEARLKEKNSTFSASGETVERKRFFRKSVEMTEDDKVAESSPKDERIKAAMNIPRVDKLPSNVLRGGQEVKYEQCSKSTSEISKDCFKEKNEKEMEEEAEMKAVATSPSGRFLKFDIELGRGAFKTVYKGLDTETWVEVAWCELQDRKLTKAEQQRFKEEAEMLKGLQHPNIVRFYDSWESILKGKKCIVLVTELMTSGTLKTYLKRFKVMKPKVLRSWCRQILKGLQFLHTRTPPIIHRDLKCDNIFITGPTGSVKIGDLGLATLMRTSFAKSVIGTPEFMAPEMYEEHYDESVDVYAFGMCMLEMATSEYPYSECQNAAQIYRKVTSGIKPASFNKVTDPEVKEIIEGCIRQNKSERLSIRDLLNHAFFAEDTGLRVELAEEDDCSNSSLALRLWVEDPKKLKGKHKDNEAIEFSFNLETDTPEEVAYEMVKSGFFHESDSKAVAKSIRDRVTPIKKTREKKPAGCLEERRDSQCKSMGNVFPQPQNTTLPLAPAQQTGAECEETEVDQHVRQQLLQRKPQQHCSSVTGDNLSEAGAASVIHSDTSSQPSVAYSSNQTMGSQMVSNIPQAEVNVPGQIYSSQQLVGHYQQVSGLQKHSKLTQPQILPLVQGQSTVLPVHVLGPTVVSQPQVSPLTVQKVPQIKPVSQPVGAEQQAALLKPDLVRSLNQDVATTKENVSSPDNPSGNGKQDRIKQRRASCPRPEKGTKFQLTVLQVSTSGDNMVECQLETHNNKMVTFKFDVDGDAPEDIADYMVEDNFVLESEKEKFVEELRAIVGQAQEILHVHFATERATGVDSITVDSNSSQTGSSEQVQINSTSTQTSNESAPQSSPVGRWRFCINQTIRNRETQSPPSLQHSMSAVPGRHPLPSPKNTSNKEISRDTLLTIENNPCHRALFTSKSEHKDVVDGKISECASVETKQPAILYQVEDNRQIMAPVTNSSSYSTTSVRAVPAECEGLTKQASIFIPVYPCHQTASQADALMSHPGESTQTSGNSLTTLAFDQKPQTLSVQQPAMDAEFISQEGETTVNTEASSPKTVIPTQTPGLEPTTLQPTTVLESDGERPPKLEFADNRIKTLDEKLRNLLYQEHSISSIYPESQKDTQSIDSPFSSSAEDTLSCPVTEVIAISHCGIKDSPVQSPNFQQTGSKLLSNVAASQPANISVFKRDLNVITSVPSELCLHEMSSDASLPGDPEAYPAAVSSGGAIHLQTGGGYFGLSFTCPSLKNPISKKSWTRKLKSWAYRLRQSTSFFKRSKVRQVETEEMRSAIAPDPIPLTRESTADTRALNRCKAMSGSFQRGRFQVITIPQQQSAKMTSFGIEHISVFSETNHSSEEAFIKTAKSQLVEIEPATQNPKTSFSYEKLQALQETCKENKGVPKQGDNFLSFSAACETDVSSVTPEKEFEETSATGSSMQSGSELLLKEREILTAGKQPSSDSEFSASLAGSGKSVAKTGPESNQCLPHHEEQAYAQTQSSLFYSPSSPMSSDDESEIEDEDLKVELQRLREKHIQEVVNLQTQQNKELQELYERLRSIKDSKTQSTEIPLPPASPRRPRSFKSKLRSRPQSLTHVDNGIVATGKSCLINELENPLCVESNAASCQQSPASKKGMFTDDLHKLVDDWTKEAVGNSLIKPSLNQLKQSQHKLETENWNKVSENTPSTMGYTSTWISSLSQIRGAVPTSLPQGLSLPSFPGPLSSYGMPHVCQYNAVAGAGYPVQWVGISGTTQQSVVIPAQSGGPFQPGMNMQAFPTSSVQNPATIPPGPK
Chain of Plk3(h) (Q9H4B4 whole entry): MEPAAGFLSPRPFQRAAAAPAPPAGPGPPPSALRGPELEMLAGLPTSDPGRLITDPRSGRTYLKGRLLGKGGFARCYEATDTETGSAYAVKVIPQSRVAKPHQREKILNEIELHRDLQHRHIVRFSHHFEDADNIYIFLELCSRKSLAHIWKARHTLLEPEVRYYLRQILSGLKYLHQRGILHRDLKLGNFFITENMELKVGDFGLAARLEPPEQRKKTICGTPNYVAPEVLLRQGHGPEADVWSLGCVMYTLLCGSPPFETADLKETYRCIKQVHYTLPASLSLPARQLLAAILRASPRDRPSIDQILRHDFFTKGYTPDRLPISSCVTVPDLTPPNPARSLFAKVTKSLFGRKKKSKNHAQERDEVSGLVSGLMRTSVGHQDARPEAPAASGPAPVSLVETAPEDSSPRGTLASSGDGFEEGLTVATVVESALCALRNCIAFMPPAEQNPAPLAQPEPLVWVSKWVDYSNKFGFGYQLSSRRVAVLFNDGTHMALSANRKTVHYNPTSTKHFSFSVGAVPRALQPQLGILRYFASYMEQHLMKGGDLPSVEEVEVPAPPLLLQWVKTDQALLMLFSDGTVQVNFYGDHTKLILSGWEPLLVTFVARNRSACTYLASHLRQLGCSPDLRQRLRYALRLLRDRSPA

SMILES: CC(C)CCC(=O)[C@]1(O)C(O)=C(C(=O)C(C)C)C(=O)[C@H]1CCC(C)C [TH2, tetrahydroiso-cohumulone]
- kinase inhibition (SAPK3(h); 1 μg/ml): 109% of control
- kinase inhibition (SAPK3(h); 5 μg/ml): 99% of control
- kinase inhibition (SAPK3(h); 25 μg/ml): 114% of control
- kinase inhibition (SAPK3(h); 50 μg/ml): 122% of control
- kinase inhibition (SAPK3(h); 100 μg/ml): 106% of control
- kinase inhibition (BTK(h); 1 μg/ml): 98% of control
- kinase inhibition (BTK(h); 5 μg/ml): 96% of control
- kinase inhibition (BTK(h); 25 μg/ml): 67% of control
- kinase inhibition (BTK(h); 50 μg/ml): 59% of control
- kinase inhibition (BTK(h); 100 μg/ml): 47% of control
- kinase inhibition (Ret(h); 1 μg/ml): 112% of control
- kinase inhibition (Ret(h); 5 μg/ml): 115% of control
- kinase inhibition (Ret(h); 25 μg/ml): 101% of control
- kinase inhibition (Ret(h); 50 μg/ml): 100% of control
- kinase inhibition (Ret(h); 100 μg/ml): 68% of control
- kinase inhibition (WNK3(h); 1 μg/ml): 111% of control
- kinase inhibition (WNK3(h); 5 μg/ml): 113% of control
- kinase inhibition (WNK3(h); 25 μg/ml): 109% of control
- kinase inhibition (WNK3(h); 50 μg/ml): 113% of control
- kinase inhibition (WNK3(h); 100 μg/ml): 111% of control
- kinase inhibition (ULK2(h); 1 μg/ml): 102% of control
- kinase inhibition (ULK2(h); 5 μg/ml): 52% of control
- kinase inhibition (ULK2(h); 25 μg/ml): 77% of control
- kinase inhibition (ULK2(h); 50 μg/ml): 106% of control
- kinase inhibition (ULK2(h); 100 μg/ml): 105% of control
- kinase inhibition (MRCKα(h); 1 μg/ml): 100% of control
- kinase inhibition (MRCKα(h); 5 μg/ml): 94% of control
- kinase inhibition (MRCKα(h); 25 μg/ml): 112% of control
- kinase inhibition (MRCKα(h); 50 μg/ml): 102% of control
- kinase inhibition (MRCKα(h); 100 μg/ml): 97% of control
- kinase inhibition (Src(1-530)(h); 1 μg/ml): 103% of control
- kinase inhibition (Src(1-530)(h); 5 μg/ml): 105% of control
- kinase inhibition (Src(1-530)(h); 25 μg/ml): 105% of control
- kinase inhibition (Src(1-530)(h); 50 μg/ml): 102% of control
- kinase inhibition (Src(1-530)(h); 100 μg/ml): 75% of control
- kinase inhibition (ALK(h); 1 μg/ml): 80% of control
- kinase inhibition (ALK(h); 5 μg/ml): 59% of control
- kinase inhibition (ALK(h); 25 μg/ml): 21% of control
- kinase inhibition (ALK(h); 50 μg/ml): 21% of control
- kinase inhibition (ALK(h); 100 μg/ml): 23% of control
- kinase inhibition (Plk3(h); 1 μg/ml): 120% of control
- kinase inhibition (Plk3(h); 5 μg/ml): 105% of control
- kinase inhibition (Plk3(h); 25 μg/ml): 104% of control
- kinase inhibition (Plk3(h); 50 μg/ml): 99% of control
- kinase inhibition (Plk3(h); 100 μg/ml): 86% of control
- kinase inhibition (PrKX(h); 1 μg/ml): 101% of control
- kinase inhibition (PrKX(h); 5 μg/ml): 103% of control
- kinase inhibition (PrKX(h); 25 μg/ml): 98% of control
- kinase inhibition (PrKX(h); 50 μg/ml): 88% of control
- kinase inhibition (PrKX(h); 100 μg/ml): 66% of control

From patent US20100137449A1, “SUBSTITUTED 1,3-CYCLOPENTADIONE MULTI-TARGET PROTEIN KINASE MODULATORS OF CANCER, ANGIOGENESIS AND THE INFLAMMATORY PATHWAYS ASSOCIATED THEREWITH” (METAPROTEOMICS, LLC, priority 2007, published 2010)
